The subject of test [1] is MDA-MB-435. Nature of the test: Growth inhibition of human MDA-MB-435 cells assessed as cell growth inhibition by SRB assay. The class given is functional.
The subject of test [2] is MDA-MB-435. Description: Anticancer activity against human MDA-MB-435 cells assessed as cell growth inhibition by SRB assay. It counts as functional, cell-based. In general terms: In SRB staining, fixed cells bind dye roughly in proportion to their protein.
Test [3] has as its system MCF7. Description: Anticancer activity against human MCF7 cells assessed as cell growth inhibition by SRB assay. It counts as functional, cell-based.
The subject of test [4] is PC-3. Nature of the test: Potency index, ratio of cisplatin IC50 to test compound IC50 for anticancer activity against human PC-3 cells. The class given is functional.
The test system of test [5] is HCT-116. Description: Anticancer activity against human HCT-116 cell assessed as cell growth inhibition. It counts as functional, cell-based.
The test system of test [6] is HepG2. Nature of the test: Anticancer activity against human HepG2 cell assessed as cell growth inhibition. It counts as functional, cell-based.
The subject of test [7] is PC-3. Description: Anticancer activity against human PC-3 cell assessed as cell growth inhibition. The class given is functional, cell-based.
Test [8] deals with MCF7. Nature of the test: Anticancer activity against human MCF7 cells assessed as cell growth inhibition measured after 48 hrs by WST-1 assay. It counts as functional, cell-based. The following applies: MCF7, 48 h. On the technique in general: Tetrazolium dyes change colour on reduction, which living cells bring about.
Test [9] concerns K562. Nature of the test: Anticancer activity against human K562 cells assessed as cell growth inhibition measured after 48 hrs by WST-1 assay. The class given is functional, cell-based. Particulars: K562, 48 h.
Test [10] deals with HT-29. Nature of the test: Anticancer activity against human HT-29 cells assessed as cell growth inhibition measured after 24 hrs by MTT assay. It counts as functional, cell-based. Particulars: HT-29, 24 h.
Test [11] has as its system MCF7. Nature of the test: Anticancer activity against human MCF7 cells assessed as cell growth inhibition measured after 24 hrs by MTT assay. It counts as functional, cell-based. The following applies: MCF7, 24 h.
The subject of test [12] is MCF7. Description: Anticancer activity against human MCF7 cells assessed as cell growth inhibition measured after 24 hrs by SRB assay. The class given is functional, cell-based. Particulars: MCF7, 24 h.
Test [13] relates to HCT-116. Nature of the test: Anticancer activity against human HCT-116 cells assessed as cell growth inhibition measured after 24 hrs by SRB assay. The class given is functional, cell-based. Particulars: HCT-116, 24 h.
Another test has as its system Mahlavu. Nature of the test: Anticancer activity against human Mahlavu cells assessed as cell growth inhibition measured after 24 hrs by SRB assay. It counts as functional, cell-based.
Another test deals with Huh-7. Nature of the test: Anticancer activity against human Huh-7 cells assessed as cell growth inhibition measured after 24 hrs by SRB assay. The class given is functional, cell-based. Particulars: Huh-7, 24 h.
Test [14] relates to PC-3. Nature of the test: Anticancer activity against human PC-3 cells assessed as cell death at 50 uM measured after 72 hrs by MTT assay relative to control. It counts as functional.
The test system of test [15] is MCF7. Description: Anticancer activity against human MCF7 cells assessed as cell growth inhibition measured after 48 hrs by MTT assay. The class given is functional, cell-based. The following applies: MCF7, 48 h.
Test [16] relates to HT-29. Nature of the test: Anticancer activity against human HT-29 cells assessed as cell growth inhibition measured after 48 hrs by MTT assay. It counts as functional, cell-based. The following applies: HT-29, 48 h.
Test [17] deals with K562. Nature of the test: Anticancer activity against human K562 cells assessed as cell growth inhibition measured after 48 hrs by MTT assay. It counts as functional, cell-based. Particulars: K562, 48 h.
Test [18] has as its system HCT-116. Description: Anticancer activity against human HCT-116 cells assessed as cell growth inhibition measured after 48 hrs by MTT assay. It counts as functional, cell-based. The following applies: HCT-116, 48 h.
The subject of test [19] is HepG2. Description: Anticancer activity against human HepG2 cells assessed as cell growth inhibition measured after 48 hrs by MTT assay. The class given is functional, cell-based. The following applies: HepG2, 48 h.
The subject of test [20] is PC-3. Nature of the test: Anticancer activity against human PC-3 cells assessed as cell growth inhibition measured after 48 hrs by MTT assay. The class given is functional, cell-based. The following applies: PC-3, 48 h.
Test [21] deals with HCT-116. Description: Potency index, ratio of cisplatin IC50 to test compound IC50 for anticancer activity against human HCT-116 cells. It counts as functional.
In test [22] the test system is HepG2. Nature of the test: Potency index, ratio of cisplatin IC50 to test compound IC50 for anticancer activity against human HepG2 cells. It counts as functional.
In a further test the test system is COS-7. Nature of the test: Anticancer activity against COS-7 cells assessed as cell growth inhibition at 50 uM measured after 48 hrs by MTT assay relative to control. The class given is functional. The following applies: Chlorocebus aethiops.

Usually GI50 stands for the concentration giving 50% growth inhibition. By IC50 is commonly meant the concentration that inhibits the measured activity by half. `N#CC1=C(N)OC2=C(C(=O)CO2)C12C(=O)Nc1ccccc12` (centres undefined): in the test with MDA-MB-435 [1], the GI50 was found to be 29.9 µM. Also, the results for the 50% inhibitory concentration (IC50) in the test on MDA-MB-435 [2] and in the test on MCF7 [3] were ≥ 3.6 µM and ≥ 53 µM, respectively.

`O=C(c1c[nH]c2ccccc12)[C@@H]1[C@@H](c2cccc(Br)c2)[C@@H]2CSCN2[C@@]12C(=O)Nc1ccccc12`: the “Ratio IC50” value in the test with PC-3 [4] is >2.9. Further, the values for the IC50 in the test on HCT-116 [5], in the test with HepG2 [6] and in the test with PC-3 [7] were 9 µM, 5.5 µM and 8 µM, respectively.

With `O=C1/C(=C/c2ccc(Br)cc2)CCC[C@]12[C@@H](c1ccc(Br)cc1)[C@@H]1CSCN1[C@]21C(=O)Nc2ccccc21`, the results for the 50% inhibitory concentration (IC50) with MCF7 [8] and with K562 [9] were 15.3 µM and 14.7 µM, respectively.

On to `CC(C)(C)c1cc(/C=N/N2C(=O)c3ccccc3C2=O)c(O)c(C(C)(C)C)c1`, for which the results for the half-inhibitory concentration (IC50) in the test with HT-29 [10] and in the test with MCF7 [11] were 667 µM and 293 µM, respectively.

As for `CC(C)C[C@@H]1N2[C@H](c3ccccc3)[C@H](c3ccccc3)OC(=O)[C@H]2[C@H](c2ccccc2Cl)[C@@]12C(=O)Nc1ccccc12`, the IC50 with MCF7 [12] was 11.2 µM; in the test with HCT-116 [13], 10.5 µM; in the test on Mahlavu, 26.3 µM; with Huh-7 it was 36.6 µM.

With `CCCC(C)c1cn(CC(=O)N2[C@@H](C(=O)OC)C[C@@H](C(=O)OC)C2(c2ccccc2)c2ccccc2)nn1` (some centres undefined), the Activity with PC-3 [14] stood at 25%.

Take `O=C(c1c[nH]c2ccccc12)[C@@H]1[C@@H](c2cccc(F)c2)[C@@H]2CSCN2[C@@]12C(=O)Nc1ccccc12`: in the test on PC-3 [4], the “Ratio IC50” value is listed as >2.9. The IC50 in the test on HCT-116 [5] is 9 µM; with HepG2 [6] it was 5.5 µM; in the test with PC-3 [7] it was 8 µM.

With `O=C1CCC(=O)N1CC(=O)N1N=C(c2ccccc2)CC1c1ccc(F)cc1` (centres undefined), the IC50 with MCF7 [15], in the test with HT-29 [16] and with K562 [17] was 0.39 µM throughout.

In the case of `N#CC1=C(N)OC2=C(C(=O)CO2)C12C(=O)Nc1ccc(I)cc12` (centres undefined), the GI50 in the test with MDA-MB-435 [1] is 27.3 µM. The IC50 in the test on MDA-MB-435 [2] is ≥ 3.6 µM; with MCF7 [3], ≥ 53 µM.

Regarding `COc1ccc(/C=C2\CCC[C@@]3(C2=O)[C@@H](c2ccc(OC)cc2)[C@@H]2CSCN2[C@]32C(=O)Nc3ccccc32)cc1`, the half-inhibitory concentration (IC50) with MCF7 [8] came to 24.4 µM; with K562 [9], 14.7 µM.

In the case of `O=C1CCC(=O)N1CC(=O)N1N=C(c2ccccc2)CC1c1ccc(Cl)c(Cl)c1` (centres undefined), the IC50 was 0.78 µM in the test with MCF7 [15], 0.39 µM in the test on HT-29 [16] and 61.9 µM with K562 [17].

In the case of `O=C1c2ccccc2C(=O)N1/N=C/c1ccc(F)c(Br)c1`, the IC50 is 254 µM with HT-29 [10] and 293 µM in the test on MCF7 [11].

`COC(=O)[C@H]1C[C@@H](C(=O)OC)C(c2ccccc2)(c2ccccc2)N1C(=O)Cn1cc(CCc2ccccc2)nn1`: the Activity with PC-3 [14] is listed as 25%.

For `O=C(/C=C/c1cccc([N+](=O)[O-])c1)[C@H]1[C@H](c2cccc([N+](=O)[O-])c2)[C@H]2CSCN2C12C(=O)Nc1ccccc12` (some centres undefined), the concentration for half-maximal inhibition (IC50) in the test on HCT-116 [18] was 2.5 µM; with HepG2 [19], 1 µM; in the test with PC-3 [20], ≥ 2.7 µM. Further, the entries for the “Ratio IC50” value in the test on HCT-116 [21], in the test with HepG2 [22] and in the test on PC-3 [4] were 4, 2 and 1.8, respectively.

Consider `O=C(c1c[nH]c2ccccc12)[C@@H]1[C@@H](c2ccc(Cl)cc2Cl)[C@@H]2CSCN2[C@@]12C(=O)Nc1ccccc12`, for which the “Ratio IC50” value in the test with PC-3 [4] is given as >4.3. Moreover, the IC50 in the test on HepG2 [6] was found to be 5.5 µM.

Usually inhibition stands for how much of the control response was suppressed. For `O=C1Nc2ccccc2C12CCNC2c1cccc(F)c1` (centres undefined), in the test with COS-7, the inhibition at 50 µM is 0.51%.

For the compound `CC(C)C[C@@H]1N2[C@H](c3ccccc3)[C@H](c3ccccc3)OC(=O)[C@H]2[C@H](c2ccccc2)[C@@]12C(=O)Nc1ccccc12`, the IC50 in the test with MCF7 [12] is 4.8 µM; in the test on HCT-116 [13], 3.9 µM; with Mahlavu, 14.9 µM; in the test on Huh-7 it was 8.2 µM.

Consider `CCc1ccc(CCOc2ccc(CC3SC(=O)NC3=O)cc2)nc1` (centres undefined) [PIOGLITAZONE], for which the IC50 is 0.07 µM in the test on MCF7 [15], 40.3 µM with HT-29 [16] and 0.29 µM with K562 [17].

Regarding `N#CC1=C(N)OC2=C(C(=O)CO2)C12C(=O)Nc1ccc(Cl)cc12` (centres undefined), the GI50 in the test with MDA-MB-435 [1] was found to be 2.1 µM. Also, the IC50 in the test with MDA-MB-435 [2] is ≥ 3.6 µM; in the test on MCF7 [3], ≥ 53 µM.

On to `COc1cc(OC)c(C2NCCC23C(=O)Nc2ccccc23)cc1OC` (centres undefined), for which the inhibition at 50 µM with COS-7 is 0.51%.

(Values after ChEMBL document CHEMBL5360530, “Structure activity relationship (SAR) and anticancer activity of pyrrolidine derivatives: Recent developments and future prospects (A review)” (Eur J Med Chem, 2023).)
